Assays:
Assay type in all cases: cell-based, human
PIGs (p53-induced genes) = assay: PIG expression in DLD-1 cells (Northern blot); details: for PIG induction by other inducers of ROS or apoptosis: DLD-1 cells
Procedure: (§1) Cells and RNA. All cell lines used in this study were obtained from the American Type Culture Collection and were cultured in McCoy's medium supplemented with 10% fetal bovine serum (FBS). Cells were infected with recombinant adenoviruses containing either the p53 gene or the β-galactosidase gene (26) at a multiplicity of infection of 10-100. RNA was purified from cells at various times after infection using the MessageMaker Kit (Gibco/BRL). Northern blot analysis was performed as described (26).
To determine the specificity of PIG expression for the p53-dependent apoptotic process, we performed experiments with other inducers of ROS or apoptosis.

DLD-1 cells [1] = assay: Cell death by other inducers of apoptosis
Procedure: (§2) Flow cytometry and other assays. Cells were collected with the aid of trypsin and incubated with CM-H2DCF-DA or NAO (Molecular Probes, Eugene, Oreg.) at concentrations of 10 and 0.4 μM, respectively, for 20 minutes at 37° C. prior to analysis by flow cytometry (14,15). To determine the fraction of apoptotic cells after various treatments, cells were stained with the DNA-binding dye H33258 and evaluated by fluorescence microscopy or flow cytometry as described (1). Superoxide production was assessed with lucigenin (29). In brief, 4-5×10^6 cells were collected with rubber policeman and resuspended in 1 ml of Earle's Balanced Salt Solution (Gibco BRL 14015-069, Life Technologies). Dark-adapted lucigenin (bis-N-methulacridinium nitrate, Sigma M8010) was added to the samples to a final concentration of 20 μM. Light emission was detected using a Berthold LB 9505C luminometer for 60 minutes at 37° C. Glutathione concentrations were measured using an assay kit purchased from Oxford Biomedical Res. Inc. according to the manufacturer's instructions. Caspase activation was assessed by cleavage of PARP (polyADP-ribose polymerase). Lysates from cells infected with Ad-p53 were Western blotted with an anti-PARP antibody, and the cleavage fragments were quantitated by densitometry (4). […]

DLD-1 cells [2] = assay: ROS by CM-DCF-DA and cardiolipin by NAO, flow cytometry
Procedure: FIG. 4A. DLD-1 cells were infected with Ad-p53 or control (Ad-lacZ) viruses and harvested after 27, 35, or 42 hours. Cells were incubated with CM-DCF-DA, a probe of ROS, or NAO, a probe of the mitochondrial membrane cardiolipin, and analyzed by flow cytometry. The mean fluorescence of the control cells is indicated by vertical lines in each box. The pro-oxidant drug menadione was used as a positive control to induce oxidative stress.
Flow cytometry and other assays. […] To determine the fraction of apoptotic cells after various treatments, cells were stained with the DNA-binding dye H33258 and evaluated by fluorescence microscopy or flow cytometry as described (1). Superoxide production was assessed with lucigenin (29). […] Light emission was detected using a Berthold LB 9505C luminometer for 60 minutes at 37° C. Glutathione concentrations were measured using an assay kit purchased from Oxford Biomedical Res. Inc. according to the manufacturer's instructions. Caspase activation was assessed by cleavage of PARP (polyADP-ribose polymerase). Lysates from cells infected with Ad-p53 were Western blotted with an anti-PARP antibody, and the cleavage fragments were quantitated by densitometry (4). […]

DLD-1 cells [3] = assay: p53-induced apoptosis in Ad-p53-infected CRC cells (H33258 staining); details: for block of apoptosis: inhibitor given at (up to) 8 hours following Ad-p53 infection, apoptosis at 24 hours
Procedure: as §1
Flow cytometry and other assays. Cells were collected with the aid of trypsin and incubated with CM-H2DCF-DA or NAO (Molecular Probes, Eugene, Oreg.) at concentrations of 10 and 0.4 μM, respectively, for 20 minutes at 37° C. prior to analysis by flow cytometry (14,15). To determine the fraction of apoptotic cells after various treatments, cells were stained with the DNA-binding dye H33258 and evaluated by fluorescence microscopy or flow cytometry as described (1). Superoxide production was assessed with lucigenin (29). In brief, 4-5×10^6 cells were collected with rubber policeman and resuspended in 1 ml of Earle's Balanced Salt Solution (Gibco BRL 14015-069, Life Technologies). Dark-adapted lucigenin (bis-N-methulacridinium nitrate, Sigma M8010) was added to the samples to a final concentration of 20 μM. Light emission was detected using a Berthold LB 9505C luminometer for 60 minutes at 37° C. Glutathione concentrations were measured using an assay kit purchased from Oxford Biomedical Res. Inc. according to the manufacturer's instructions. Caspase activation was assessed by cleavage of PARP (polyADP-ribose polymerase). Lysates from cells infected with Ad-p53 were Western blotted with an anti-PARP antibody, and the cleavage fragments were quantitated by densitometry (4).
To evaluate the patterns of gene expression following p53 expression, we employed SAGE, a technique which allows the quantitative evaluation of cellular mRNA populations (3). In brief, the method revolves around short sequence “tags” (11 bp), generated from defined positions within each mRNA molecule. Expression patterns are deduced from the abundance of individual tags. […] As previously shown, DLD-1 cells are among the ˜50% of CRC lines that undergo apoptosis in response to p53 (4). RNA was purified from cells 16 hours after infection, at least 8 hours before the onset of morphological signs of apoptosis.
To determine whether these steps were causally associated, we inhibited each step with specific pharmacologic agents and determined the effect of this inhibition on other components of the pathway.

DLD-1 cells [4] = assay: ROS production in Ad-p53-infected cells (lucigenin chemiluminescence); details: treated 12 hours after Ad-p53 infection
Procedure: as §2

DLD-1 cells [5] = assay: Toxicity of inhibitor to cells at the dose used; details: 100 μM
Procedure: Finally, we treated cells with bongkrekic acid (BA), a specific inhibitor of mitochondrial ATP translocase which can block the mitochondrial permeability transition pore opening thought to be required for ROS-dependent forms of apoptosis (13). […] BA was non-toxic at the dose used (100 μM). While BA inhibited the p53-apoptotic process dependent on ROS production, it had no effect on the p53-mediated growth arrest dependent on p21 as assessed by flow cytometry.

DLD-1 cells [6] = assay: p53-mediated growth arrest dependent on p21 (flow cytometry)
Procedure: as §2

PIG3 = PIG3 induction by endogenous p53 in six CRC cancer cell lines
Procedure: as §1
As a further test of the p53-dependency of PIG3 induction, we determined whether PIG3 could be induced by endogenous p53 rather than through the exogenous Ad-p53 source. Six CRC cancer cell lines were each treated with adriamycin, a DNA-damaging and apoptotic-inducing agent known to increase endogenous p53 levels.

[7] = 100 μM, treated 12 hours after Ad-p53 infection

With OO [hydrogen peroxide] the “PIG induction by other inducers of ROS or apoptosis” value (from here on “PIG induction by other inducers”) (PIGs (p53-induced genes)) was “only p21 was induced”.

For COc1ccc2c(c1)c(CC(=O)O)c(C)n2C(=O)c1ccc(Cl)cc1 [indomethacin], the cell death (DLD-1 cells [1]) was “extensive cell death” and the “PIG induction by other inducers” value (PIGs (p53-induced genes)) was “did not result in the expression of any PIG”.

CC1=CC(=O)c2ccccc2C1=O [menadione] was tested, and the “ROS (DCF fluorescence)” value (DLD-1 cells [2]) was “increase in ROS” and the “PIG induction by other inducers” value (PIGs (p53-induced genes)) was “none were induced”.

Compound C[C@@H]1C[C@@H]([C@H](O)CC2CC(=O)NC(=O)C2)C(=O)[C@@H](C)C1 [cycloheximide] has a block of apoptosis (DLD-1 cells [3]) of 79%.

In the case of OC[C@H]1O[C@@H](n2cnc3cc(Cl)c(Cl)cc32)[C@H](O)[C@@H]1O [DRB, 5,6-dichlorobenimidizole riboside], the block of apoptosis (DLD-1 cells [3]) was 83+/−3% and the “expression of PIGs” value (PIGs (p53-induced genes); Ad-p53-infected cells, DRB at 8 hours following infection) was “inhibit the expression of PIGs”.

In the case of CO[C@H](C/C=C\C=C\CC/C=C/C[C@H](C)/C=C/C(=C\C(=O)O)CC(=O)O)/C(C)=C\C=C(/C)C(=O)O [BA, bongkrekic acid], the ROS production (DLD-1 cells [4]; 100 μM) was “inhibit neither”, the “toxicity at the dose used” value (DLD-1 cells [5]) was “non-toxic” and the “inhibition of subsequent apoptosis” value (DLD-1 cells [3]; [7]) was 86-93%. The “effect on p53-mediated growth arrest dependent on p21” value (DLD-1 cells [6]) was “no effect” and the PIG3 expression (PIGs (p53-induced genes); [7]) was “inhibit neither”.

For c1ccc2c(c1)[I+]c1ccccc1-2 [DPI, diphenyleneiodonium chloride], the inhibition at 25 µM (DLD-1 cells [4]; Homo sapiens, DLD-1, 25 μM, measured 12 hours later, three independent experiments) was 71 to 85%, the inhibition at 25 µM (DLD-1 cells [3]; Homo sapiens, DLD-1, 25 μM, treated 12 hours after Ad-p53 infection, measured 12 hours later, three independent experiments) was 73 to 77% and the PIG3 production (PIGs (p53-induced genes)) was “did not inhibit”.

For S=C(S)N1CCCC1 [PDTC, pyrrolidine dithiocarbamate], the “block of apoptosis elicited by p53” value (DLD-1 cells [3]; p53-expressing cells treated with anti-oxidant) was “able to block the apoptosis”.

ceramide was tested, and the cell death (DLD-1 cells [1]) was “extensive cell death” and the “PIG induction by other inducers” value (PIGs (p53-induced genes)) was “did not result in the expression of any PIG”.

With COc1cccc2c1C(=O)c1c(O)c3c(c(O)c1C2=O)C[C@@](O)(C(=O)CO)C[C@@H]3O[C@H]1C[C@H](N)[C@H](O)[C@H](C)O1 [adriamycin] the PIG3 induction (PIG3; three CRC lines with mutant p53 genes) was “not in the three lines with mutant p53 genes” and the PIG3 induction (PIG3; three CRC lines with wild-type p53 genes) was “strongly induced”.

Source: patent US6432640B1, “P53-induced apoptosis” (priority 1997, dated 2002)
